Measured values reported in patent US10202378B2, “Therapeutic compounds and uses thereof” (GENENTECH, INC., priority 2015, dated 2019).
pIC50: −log10 of the molar value.

Columns and labels:
TAF1-BD2 = TAF1-BD2 (Homo sapiens, UniProt P21675); test: TAF1-BD2 TR-FRET Binding Assay; conditions: read-out: TAF1-BD2 HTRF IC50
TAF1-BD1 = TAF1-BD1 (Homo sapiens, UniProt P21675); test: TAF1-BD1 TR-FRET Binding Assay; conditions: read-out: TAF1-BD1 HTRF IC50

Cc1cc([C@](C)(O)C#Cc2cn(C)c(=O)c3[nH]c(C)c(-c4nnc(C)o4)c23)no1 [Example 193, 4-[(3R)-3-hydroxy-3-(5-methylisoxazol-3-yl)but-1-ynyl]-2,6-dimethyl-3-(5-methyl-1,3,4-oxadiazol-2-yl)-1H-pyrrolo[2,3-c]pyridin-7-one] gave a pIC50 (TAF1-BD2) of 6.82 and a pIC50 (TAF1-BD1) of 6.29.

Compound Cc1cc([C@](C)(O)C#Cc2cn(C)c(=O)c3[nH]c(C)c(-c4nnc(C(C)C)o4)c23)no1 [Example 194, 4-[(3R)-3-hydroxy-3-(5-methylisoxazol-3-yl)but-1-ynyl]-3-(5-isopropyl-1,3,4-oxadiazol-2-yl)-2,6-dimethyl-1H-pyrrolo[2,3-c]pyridin-7-one] has a pIC50 (TAF1-BD2) of 7.16 and a pIC50 (TAF1-BD1) of 6.61.

With Cc1[nH]c2c(=O)n(C)cc(C#CC(C)(C)O)c2c1-c1nnc(C(C)C)o1 [Example 195, 4-(3-hydroxy-3-methyl-but-1-ynyl)-3-(5-isopropyl-1,3,4-oxadiazol-2-yl)-2,6-dimethyl-1H-pyrrolo[2,3-c]pyridin-7-one] the pIC50 (TAF1-BD2) was 7.53 and the pIC50 (TAF1-BD1) was 6.44.

Compound CCOC(=O)c1c(C)[nH]c2c(=O)n(C)cc(C#CC(O)(c3cccc(C(N)=O)c3)C(F)(F)F)c12 (stereo not shown) [Example 197, ethyl 4-[3-(3-carbamoylphenyl)-4,4,4-trifluoro-3-hydroxy-but-1-ynyl]-2,6-dimethyl-7-oxo-1H-pyrrolo[2,3-c]pyridine-3-carboxylate] has a pIC50 (TAF1-BD2) of 7.47 and a pIC50 (TAF1-BD1) of 6.73.

Work on Cc1cc2c(C#CC(C)(C)O)cn(C)c(=O)c2[nH]1 [Example 198, 4-(3-hydroxy-3-methyl-but-1-ynyl)-2,6-dimethyl-1H-pyrrolo[2,3-c]pyridin-7-one] yielded a pIC50 (TAF1-BD2) of 6.27 and a pIC50 (TAF1-BD1) of 5.76.

CC(=O)c1c(C)[nH]c2c(=O)n(C)cc(C#CC(C)(C)O)c12 [Example 199a, 3-acetyl-4-(3-hydroxy-3-methyl-but-1-ynyl)-2,6-dimethyl-1H-pyrrolo[2,3-c]pyridin-7-one] gave a pIC50 (TAF1-BD2) of 6.89 and a pIC50 (TAF1-BD1) of 5.89.

CC(=O)c1c(C)n(C)c2c(=O)[nH]cc(C#CC(C)(C)O)c12 [Example 199b, 3-acetyl-4-(3-hydroxy-3-methyl-but-1-ynyl)-1,2-dimethyl-6H-pyrrolo[2,3-c]pyridin-7-one] gave a pIC50 (TAF1-BD2) of 4.70 and a pIC50 (TAF1-BD1) of 4.70.

Work on Cc1[nH]c2c(=O)n(C)cc(C#CC(C)(C)O)c2c1C(=O)O [Example 200, 4-(3-hydroxy-3-methyl-but-1-ynyl)-2,6-dimethyl-7-oxo-1H-pyrrolo[2,3-c]pyridine-3-carboxylic acid] yielded a pIC50 (TAF1-BD2) of 4.86 and a pIC50 (TAF1-BD1) of 4.70.

Cc1[nH]c2c(=O)n(C)cc(C#CC(C)(C)O)c2c1C1=NC(C(C)C)CO1 (stereo not shown) [Example 202, 4-(3-hydroxy-3-methyl-but-1-ynyl)-3-(4-isopropyl-4,5-dihydrooxazol-2-yl)-2,6-dimethyl-1H-pyrrolo[2,3-c]pyridin-7-one] was tested, and the pIC50 (TAF1-BD2) was 6.75 and the pIC50 (TAF1-BD1) was 5.91.

Cc1[nH]c2c(=O)n(C)cc(C#CC(C)(O)C3CC3)c2c1C1=NC(C(C)C)CO1 (stereo not shown) [Example 203, 4-(3-cyclopropyl-3-hydroxy-but-1-ynyl)-3-(4-isopropyl-4,5-dihydrooxazol-2-yl)-2,6-dimethyl-1H-pyrrolo[2,3-c]pyridin-7-one] gave a pIC50 (TAF1-BD2) of 6.51 and a pIC50 (TAF1-BD1) of 5.95.

Compound Cc1[nH]c2c(=O)n(C)cc(C#CC(C)(O)C3CC3)c2c1C1=NCC(C)(C)O1 (stereo not shown) [Example 204, 4-(3-cyclopropyl-3-hydroxy-but-1-ynyl)-3-(5,5-dimethyl-4H-oxazol-2-yl)-2,6-dimethyl-1H-pyrrolo[2,3-c]pyridin-7-one] has a pIC50 (TAF1-BD2) of 6.83 and a pIC50 (TAF1-BD1) of 5.99.

Cc1[nH]c2c(=O)n(C)cc(C#CC(O)(c3ccccc3)C(F)(F)F)c2c1-c1nnc(CO)o1 (stereo not shown) [Example 205, 3-(5-(hydroxymethyl)-1,3,4-oxadiazol-2-yl)-2,6-dimethyl-4-(4,4,4-trifluoro-3-hydroxy-3-phenyl-but-1-ynyl)-1H-pyrrolo[2,3-c]pyridin-7-one] gave a pIC50 (TAF1-BD2) of 7.05 and a pIC50 (TAF1-BD1) of 6.48.

For CCOC(=O)c1c(C2CC2)[nH]c2c(=O)n(C)cc(C#CC(C)(C)O)c12 [Example 207, ethyl 2-cyclopropyl-4-(3-hydroxy-3-methyl-but-1-ynyl)-6-methyl-7-oxo-1H-pyrrolo[2,3-c]pyridine-3-carboxylate], the pIC50 (TAF1-BD2) was 6.45 and the pIC50 (TAF1-BD1) was 6.02.

CCOC(=O)c1c(C)[nH]c2c(=O)n(C)cc(C#CC(O)(c3cccc(N4CCOCC4)c3)C(F)(F)F)c12 (stereo not shown) [Example 208, ethyl 2,6-dimethyl-7-oxo-4-[4,4,4-trifluoro-3-hydroxy-3-(3-morpholinophenyl)but-1-ynyl]-1H-pyrrolo[2,3-c]pyridine-3-carboxylate] was tested, and the pIC50 (TAF1-BD2) was 7.10 and the pIC50 (TAF1-BD1) was 6.36.
